# Reference: patent publication US20160257697A1, “THIOPHENE-SUBSTITUTED TETRACYCLIC COMPOUNDS AND METHODS OFUSE THEREOF FOR THE TREATMENT OF VIRAL DISEASES” (priority 2013, published 2016)
# Where two headings read alike, the source gives them in different places.
# Legend:
# Assay in all cases: microbe, parasite or virus in culture
# Type in all cases: cell-based, Hepatitis C virus (HCV)
# HCV replicon 1A = details: Replicon Assay A
# How it was run: (§1)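 Compound is added to replicon cells plated at 2000 cells/well (0.5% DMSO, 5% FBS). After 3 days the cells are washed and lysed, and HCV RNA and cyclophilin mRNA are quantified by multiplex RT-PCR against a standard curve of known replicon total RNA.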
# HCV replicon 2B = details: Replicon Assay A
# How it was run: as §1
# HCV replicon 1AY93H = details: Replicon Assay A
# How it was run: as §1
# HCV replicon 1AQ30D = details: Replicon Assay B
# HCV replicon 1B = details: Replicon Assay B
# [1] = Hepatitis C virus, read-out: 2B IC50 (nM), replicon 2B
# [2] = Hepatitis C virus, read-out: 1A Y93H IC50 (nM), replicon 1AY93H
# [3] = Hepatitis C virus, read-out: 1A Q30D IC50 (nM), replicon 1AQ30D
# [4] = read-out: 1A Y93H IC50, replicon 1AY93H
# [5] = read-out: 1A Q30D IC50, replicon 1AQ30D
# [6] = replicon 1AY93H, read-out: 1A Y93H IC50
# [7] = replicon 1AQ30D, read-out: 1A Q30D IC50
# [8] = read-out: 2B IC50, HCV replicon 2B
# [9] = read-out: 1A Y93H IC50, HCV replicon 1A Y93H
# [10] = read-out: 1A Q30D IC50, HCV replicon 1A Q30D
compound,measurement,setting,value
COC(=O)N[C@H](C(=O)N1CCC[C@@H]1c1ncc(-c2ccc3c(c2)cc2n3C(c3ccc(C4CC4)s3)Oc3cc(-c4cnc([C@@H]5CCCN5C(=O)[C@H](NC(=O)OC)C(C)(C)F)[nH]4)cc(F)c3-2)[nH]1)C1C[C@@H](C)O[C@@H](C)C1 (some centres unmarked) [Compound 380],IC50,"HCV replicon 1A; Hepatitis C virus, replicon 1A",3 pM
same,IC50,HCV replicon 2B; [1],0.0056 nM
same,IC50,HCV replicon 1AY93H; [2],0.0052 nM
same,IC50,HCV replicon 1AQ30D; [3],0.022 nM
same,IC50,"HCV replicon 1B; Hepatitis C virus, replicon 1B",2.4 pM
"COC(=O)NC(C(=O)N1CCC[C@H]1c1ncc(-c2ccc3c(c2)cc2n3C(c3cc4ccccc4s3)Oc3cc(-c4cnc([C@@H]5CCCN5C(=O)[C@@H](NC(=O)OC)C5CCOCC5)[nH]4)cc(F)c3-2)[nH]1)C(C)(C)F (single isomer, unassigned) [Compound 183]",IC50,HCV replicon 1A; replicon 1A,1.2 pM
same,IC50,"HCV replicon 2B; read-out: 2B IC50, replicon 2B",0.68 nM
same,IC50,HCV replicon 1AY93H; [4],0.74 nM
same,IC50,HCV replicon 1AQ30D; [5],1.08 nM
same,IC50,HCV replicon 1B; replicon 1B,2.4 pM
"COC(=O)NC(C(=O)N1CCC[C@H]1c1ncc(-c2cc(F)c3c(c2)OC(c2ccc(C4CC4)s2)n2c-3cc3cc(-c4cnc([C@@H]5CCCN5C(=O)[C@@H](NC(=O)OC)C(C)C)[nH]4)ccc32)[nH]1)C1CCOC(C)(C)C1 (single isomer, unassigned) [Compound 215]",IC50,HCV replicon 1A; replicon 1A,3.1 pM
same,IC50,"HCV replicon 2B; read-out: 2B IC50, replicon 2B",0.01 nM
same,IC50,HCV replicon 1AY93H; [4],0.005 nM
same,IC50,HCV replicon 1AQ30D; [5],0.017 nM
same,IC50,HCV replicon 1B; replicon 1B,3.2 pM
"COC(=O)N[C@H](C(=O)N1CCC[C@H]1c1ncc(-c2cc(F)c3c(c2)OC(c2ccc(C(F)F)s2)n2c-3cc3cc(-c4cnc([C@@H]5CCCN5C(=O)[C@@H](NC(=O)OC)C(C)C)[nH]4)ccc32)[nH]1)C(C)C (single isomer, unassigned) [Compound 45]",IC50,HCV replicon 1A; replicon 1A,1.1 pM
same,IC50,"HCV replicon 2B; replicon 2B, read-out: 2B IC50",0.044 nM
same,IC50,HCV replicon 1AY93H; [6],0.01 nM
same,IC50,HCV replicon 1AQ30D; [7],0.37 nM
same,IC50,HCV replicon 1B; replicon 1B,1.1 pM
"COCCc1ccc(C2Oc3cc(-c4cnc([C@@H]5CCCN5C(=O)[C@@H](NC(=O)OC)C(C)C)[nH]4)cc(F)c3-c3cc4cc(-c5cnc([C@@H]6CCCN6C(=O)[C@@H](NC(=O)OC)C(C)C)[nH]5)ccc4n32)s1 (single isomer, unassigned) [Compound 82]",IC50,HCV replicon 1A; replicon 1A,1.1 pM
same,IC50,"HCV replicon 2B; replicon 2B, read-out: 2B IC50",0.15 nM
same,IC50,HCV replicon 1AY93H; [6],0.014 nM
same,IC50,HCV replicon 1AQ30D; [7],0.26 nM
same,IC50,HCV replicon 1B; replicon 1B,1.3 pM
"COC(=O)NC(C(=O)N1CCC[C@H]1c1ncc(-c2ccc3c(c2)cc2n3C(c3ccc(C4CC4)s3)Oc3cc(-c4cnc([C@@H]5CCCN5C(=O)C(NC(=O)OC)C(C)(C)F)[nH]4)cc(F)c3-2)[nH]1)C1C[C@@H](C)O[C@@H](C)C1 (single isomer, unassigned) [Compound 379]",IC50,"HCV replicon 1A; Hepatitis C virus, replicon 1A",2.2 pM
same,IC50,HCV replicon 2B; [1],0.178 nM
same,IC50,HCV replicon 1AY93H; [2],0.0803 nM
same,IC50,HCV replicon 1AQ30D; [3],0.798 nM
same,IC50,"HCV replicon 1B; Hepatitis C virus, replicon 1B",1.1 pM
"CCc1ccc(C2Oc3cc(-c4cnc([C@@H]5CCCN5C(=O)[C@@H](NC(=O)OC)C(C)C)[nH]4)cc(F)c3-c3cc4cc(-c5cnc([C@@H]6C[C@H]7C[C@H]7N6C(=O)C(NC(=O)OC)C6CCOC(C)(C)C6)[nH]5)ccc4n32)s1 (single isomer, unassigned) [Compound 201]",IC50,HCV replicon 1A; replicon 1A,1.5 pM
same,IC50,"HCV replicon 2B; read-out: 2B IC50, replicon 2B",0.008 nM
same,IC50,HCV replicon 1AY93H; [4],0.002 nM
same,IC50,HCV replicon 1AQ30D; [5],0.015 nM
same,IC50,HCV replicon 1B; replicon 1B,2.2 pM
"COC(=O)N[C@H](C(=O)N1CCC[C@H]1c1ncc(-c2cc(F)c3c(c2)OC(c2cc4c(s2)CCC4)n2c-3cc3cc(-c4cnc([C@@H]5C[C@H]6C[C@H]6N5C(=O)[C@@H](NC(=O)OC)C5CCOCC5)[nH]4)ccc32)[nH]1)C(C)C (single isomer, unassigned) [Compound 542]",IC50,HCV replicon 1A; HCV replicon 1A,3.42 pM
same,IC50,HCV replicon 2B; [8],0.0335 nM
same,IC50,HCV replicon 1AY93H; [9],0.00855 nM
same,IC50,HCV replicon 1AQ30D; [10],0.162 nM
same,IC50,HCV replicon 1B; HCV replicon 1B,3.71 pM
"COC(=O)N[C@H](C(=O)N1CCC[C@H]1c1ncc(-c2cc(F)c3c(c2)OC(c2cc4c(s2)CCC4)n2c-3cc3cc(-c4cnc([C@@H]5CCCN5C(=O)[C@@H](NC(=O)OC)C5CCOCC5)[nH]4)ccc32)[nH]1)C(C)C (single isomer, unassigned) [Compound 622]",IC50,HCV replicon 1A; HCV replicon 1A,2.4 pM
same,IC50,HCV replicon 2B; [8],0.0068 nM
same,IC50,HCV replicon 1AY93H; [9],0.0044 nM
same,IC50,HCV replicon 1AQ30D; [10],0.0594 nM
same,IC50,HCV replicon 1B; HCV replicon 1B,2.2 pM
"CCc1ccc(C2Oc3cc(-c4cnc(C5CCCN5C(=O)C(NC(=O)OC)C5C[C@@H](C)O[C@@H](C)C5)[nH]4)ccc3-c3cc4c(F)c(-c5cnc([C@@H]6CCCN6C(=O)[C@@H](NC(=O)OC)C(C)C)[nH]5)ccc4n32)s1 (single isomer, unassigned) [Compound 359]",IC50,HCV replicon 1A; replicon 1A,3.6 pM
same,IC50,"HCV replicon 2B; read-out: 2B IC50, replicon 2B",0.0519 nM
same,IC50,HCV replicon 1AY93H; [4],0.0826 nM
same,IC50,HCV replicon 1AQ30D; [3],0.848 nM
same,IC50,"HCV replicon 1B; Hepatitis C virus, replicon 1B",1.9 pM
